Test results as given in patent publication EP0573253B1, “Topical anti-bacterial composition” (UNILEVER PLC, priority 1992, dated 1993).

How the values were obtained:
Staphylococcus aureus = assay: Agar dilution test, minimum inhibitory concentration; type: cell-based; settings: for MINIMUM INHIBITORY CONCENTRATION: Trypticase Soy Agar II plates
Procedure: (§1) Standard agar dilution tests in order to establish the minimum inhibitory concentration (% v/v) for C6 acyl lactylate, C8 acyl lactylate and C12 acyl lactylate were performed both in the presence and the absence of a lipid on the following micro-organisms: • 1. Propionibacterium acnes • 2. Staphylococcus aureus • 3. Escherichia coli • 4. Candida albicans
(§2) Control experiments were performed employing benzoyl peroxide and erthyromycin.
(§3) The present tests were performed using Trypticase Soy Agar II incorporation plates with and without 10% intralipid, supplied by Kabi Pharmacia Inc. In each case the lactylate being tested was used at a starting concentration of 10,000 ug/ml.

Candida albicans = assay: as above; type: cell-based; settings: for MINIMUM INHIBITORY CONCENTRATION: Trypticase Soy Agar II plates
Procedure: as §1, §2, §3

Escherichia coli = assay: as above; type: cell-based; settings: for MINIMUM INHIBITORY CONCENTRATION: Trypticase Soy Agar II plates; for inhibitory against gram-negative bacteria: text summary of Table II, lipid condition not stated
Procedure: as §1, §2, §3

Propionibacterium acnes = assay: as above; type: cell-based; settings: Trypticase Soy Agar II plates
Procedure: as §1, §2, §3

rate of hair loss = assay: Reduction of the rate of hair loss, panel of human volunteers (brushing and hair count); type: in vivo; settings: human panellists, about 3 ml applied to the scalp daily at night, compared with placebo composition B; Student t-test
Procedure: The effect of selected acyl lactylates, as herein defined, on reducing the rate of hair loss was assessed using a panel of human volunteers.
Each panellist was requested to brush his or her hair immediately on getting out of bed in the morning before other grooming took place. The hair brushing consisted of ten vigorous strokes over the entire head from front to back, ten strokes from back to front and then ten strokes from each side to the opposite side. Brushing was carried out over a towel or other light cloth to collect any hairs that fell. In addition, all the hairs on the brush were removed with forceps. The total number of hair collected each day was counted. Panellists were requested to continue with their routine hair shampooing and grooming techniques as usual, the only change to this routine being the application of products in accordance with the invention or corresponding control or placebo products.
During the first month, each panellist carried out only the standard brushing, collecting and counting of hairs lost to provide a basis for comparison later. For the second and third months, the scalp was treated by adding the test or placebo compositions in addition to the standard brushing technique as previously described. […]
The results were analysed by the standard Student t-test.

[1] = text summary of Table II, lipid condition not stated

Compound	MINIMUM INHIBITORY CONCENTRATION (Staphylococcus aureus; Lipid (10% intralipid))	MINIMUM INHIBITORY CONCENTRATION (Staphylococcus aureus; No Lipid)	MINIMUM INHIBITORY CONCENTRATION (Candida albicans; Lipid (10% intralipid))	MINIMUM INHIBITORY CONCENTRATION (Candida albicans; No Lipid)	MINIMUM INHIBITORY CONCENTRATION (Escherichia coli; Lipid (10% intralipid))	MINIMUM INHIBITORY CONCENTRATION (Escherichia coli; No Lipid)	MINIMUM INHIBITORY CONCENTRATION (Propionibacterium acnes; Lipid (10% intralipid))	MINIMUM INHIBITORY CONCENTRATION (Propionibacterium acnes; No Lipid)	inhibitory against gram-negative bacteria (Escherichia coli) [% v/v]	inhibitory to gram-positive bacteria (Staphylococcus aureus; [1]) [% v/v]	inhibitory effect against yeast (Candida albicans; [1]) [% v/v]	reduction in the rate of loss of hair (rate of hair loss)
O=C(OOC(=O)c1ccccc1)c1ccccc1 [Benzoyl Peroxide, benzoyl peroxide, reference compound]	0.12 % V/V	0.25 % V/V	0.12 % V/V	0.25 % V/V	0.12 % V/V	0.25 % V/V	0.06 % V/V	0.25 % V/V				
CC[C@H]1OC(=O)[C@H](C)[C@@H](O[C@H]2C[C@@](C)(OC)[C@@H](O)[C@H](C)O2)[C@H](C)[C@@H](O[C@@H]2O[C@H](C)C[C@H](N(C)C)[C@H]2O)[C@](C)(O)C[C@@H](C)C(=O)[C@H](C)[C@@H](O)[C@]1(C)O [Erthyromycin, erthyromycin, reference compound]	3.1 x 10^-4 % V/V	3.1 x 10^-4 % V/V	0.01 % V/V	0.01 % V/V	0.01 % V/V	0.01 % V/V	<1.9 x 10^-5 % V/V	<1.9 x 10^-5 % V/V				
C6 acyl lactylate [C6 Lactylate]	pH Effect	" "	" "	" "	" "	" "	0.5 % V/V	pH Effect				
C8 acyl lactylate [C8 Lactylate]	0.5 % V/V	0.5 % V/V	1.0 % V/V	1.0 % V/V	1.0 % V/V	1.0 % V/V	0.5 % V/V	0.25 % V/V	1			
C12 acyl lactylate [C12 Lactylate]	0.5 % V/V	0.06 % V/V	>1.0 % V/V	>1.0 % V/V	>1.0 % V/V	>1.0 % V/V	0.25 % V/V	0.00039 % V/V	> 1	0.0625	> 1	significantly reduced
